Assay results as given in PubChem BioAssay (NCI).
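Assay format: 96-well plates, 48-hour exposure. TGI is the concentration that stops growth completely.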

Columns and labels:
Assay in all cases: NCI-60 cell line screen, 48 h
HCT-15 colon = system: HCT-15 colon
K-562 leukemia = system: K-562 leukemia
OVCAR-5 ovarian = system: OVCAR-5 ovarian
NCI-H23 lung = system: NCI-H23 lung
OVCAR-4 ovarian = system: OVCAR-4 ovarian
KM12 colon = system: KM12 colon
DMS 273 small cell lung = system: DMS 273 small cell lung
RXF-631 renal = system: RXF-631 renal
SF-295 CNS = system: SF-295 CNS
SNB-19 CNS = system: SNB-19 CNS
EKVX NSCLC = system: EKVX NSCLC
COLO 205 colon = system: COLO 205 colon
OVCAR-3 ovarian = system: OVCAR-3 ovarian
MALME-3M melanoma = system: MALME-3M melanoma
SK-MEL-28 melanoma = system: SK-MEL-28 melanoma
U251 CNS = system: U251 CNS
SK-MEL-2 melanoma = system: SK-MEL-2 melanoma
MOLT-4 leukemia = system: MOLT-4 leukemia
HCC-2998 colon = system: HCC-2998 colon
SF-268 CNS = system: SF-268 CNS
IGROV1 ovarian = system: IGROV1 ovarian
ACHN renal = system: ACHN renal
UACC-257 melanoma = system: UACC-257 melanoma
SNB-78 CNS = system: SNB-78 CNS
KM20L2 colon = system: KM20L2 colon
SF-539 CNS = system: SF-539 CNS
SR leukemia = system: SR leukemia
HT29 colon = system: HT29 colon
RXF 393 renal = system: RXF 393 renal
HCT-116 colon = system: HCT-116 colon
HL-60(TB) leukemia = system: HL-60(TB) leukemia
SW-620 colon = system: SW-620 colon
A549 NSCLC = system: A549 NSCLC
NCI-H226 lung = system: NCI-H226 lung
RPMI-8226 leukemia = system: RPMI-8226 leukemia
LXFL 529 NSCLC = system: LXFL 529 NSCLC
DLD-1 colon = system: DLD-1 colon
UO-31 renal = system: UO-31 renal
786-0 renal = system: 786-0 renal
CAKI-1 renal = system: CAKI-1 renal
DMS 114 small cell lung = system: DMS 114 small cell lung
CCRF-CEM leukemia = system: CCRF-CEM leukemia
M14 melanoma = system: M14 melanoma
SNB-75 CNS = system: SNB-75 CNS
NCI-H460 lung = system: NCI-H460 lung
A498 renal = system: A498 renal
XF 498 CNS = system: XF 498 CNS
HOP-62 NSCLC = system: HOP-62 NSCLC
LOX IMVI melanoma = system: LOX IMVI melanoma
NCI-H522 lung = system: NCI-H522 lung
TK-10 renal = system: TK-10 renal
SN12C renal = system: SN12C renal
SK-OV-3 ovarian = system: SK-OV-3 ovarian
OVCAR-8 ovarian = system: OVCAR-8 ovarian
HOP-18 NSCLC = system: HOP-18 NSCLC
M19-MEL melanoma = system: M19-MEL melanoma
SK-MEL-5 melanoma = system: SK-MEL-5 melanoma
UACC-62 melanoma = system: UACC-62 melanoma
HOP-92 NSCLC = system: HOP-92 NSCLC

Cc1nnc(N=Nc2c(O)[nH]c3ccccc23)n1N
TGI (HCT-15 colon): > 100 µM
TGI (K-562 leukemia): > 100 µM
TGI (OVCAR-5 ovarian): > 100 µM
TGI (NCI-H23 lung): > 100 µM
TGI (OVCAR-4 ovarian): > 100 µM
TGI (KM12 colon): > 100 µM
TGI (DMS 273 small cell lung): > 100 µM
TGI (RXF-631 renal): > 100 µM
TGI (SF-295 CNS): > 100 µM
TGI (SNB-19 CNS): > 100 µM
TGI (EKVX NSCLC): > 100 µM
TGI (COLO 205 colon): > 100 µM
TGI (OVCAR-3 ovarian): > 100 µM
TGI (MALME-3M melanoma): > 100 µM
TGI (SK-MEL-28 melanoma): > 100 µM
TGI (U251 CNS): > 100 µM
TGI (SK-MEL-2 melanoma): > 100 µM
TGI (MOLT-4 leukemia): > 100 µM
TGI (HCC-2998 colon): > 100 µM
TGI (SF-268 CNS): > 100 µM
TGI (IGROV1 ovarian): > 100 µM
TGI (ACHN renal): > 100 µM
TGI (UACC-257 melanoma): > 100 µM
TGI (SNB-78 CNS): > 100 µM
TGI (KM20L2 colon): > 100 µM
TGI (SF-539 CNS): > 100 µM
TGI (SR leukemia): > 100 µM
TGI (HT29 colon): > 100 µM
TGI (RXF 393 renal): > 100 µM
TGI (HCT-116 colon): > 100 µM
TGI (HL-60(TB) leukemia): > 100 µM
TGI (SW-620 colon): > 100 µM
TGI (A549 NSCLC): > 100 µM
TGI (NCI-H226 lung): > 100 µM
TGI (RPMI-8226 leukemia): > 100 µM
TGI (LXFL 529 NSCLC): > 100 µM
TGI (DLD-1 colon): > 100 µM
TGI (UO-31 renal): > 100 µM
TGI (786-0 renal): > 100 µM
TGI (CAKI-1 renal): > 100 µM
TGI (DMS 114 small cell lung): > 100 µM
TGI (CCRF-CEM leukemia): > 100 µM
TGI (M14 melanoma): > 100 µM
TGI (SNB-75 CNS): > 100 µM
TGI (NCI-H460 lung): > 100 µM
TGI (A498 renal): > 100 µM
TGI (XF 498 CNS): > 100 µM
TGI (HOP-62 NSCLC): > 100 µM
TGI (LOX IMVI melanoma): > 100 µM
TGI (NCI-H522 lung): > 100 µM
TGI (TK-10 renal): > 100 µM
TGI (SN12C renal): > 100 µM
TGI (SK-OV-3 ovarian): > 100 µM
TGI (OVCAR-8 ovarian): > 100 µM
TGI (HOP-18 NSCLC): > 100 µM
TGI (M19-MEL melanoma): > 100 µM
TGI (SK-MEL-5 melanoma): > 100 µM
TGI (UACC-62 melanoma): > 100 µM

CC1(C)CC(=O)c2c(oc3cc(O)c(O)cc23)C1
TGI (HCT-15 colon): > 100 µM
TGI (K-562 leukemia): > 100 µM
TGI (OVCAR-5 ovarian): 56.9 µM
TGI (OVCAR-4 ovarian): 43.4 µM
TGI (KM12 colon): 77.4 µM
TGI (DMS 273 small cell lung): > 100 µM
TGI (RXF-631 renal): > 100 µM
TGI (SF-295 CNS): > 100 µM
TGI (SNB-19 CNS): > 100 µM
TGI (COLO 205 colon): > 100 µM
TGI (MALME-3M melanoma): 94.6 µM
TGI (U251 CNS): > 100 µM
TGI (SK-MEL-2 melanoma): 76.8 µM
TGI (MOLT-4 leukemia): > 100 µM
TGI (HCC-2998 colon): > 100 µM
TGI (SF-268 CNS): > 100 µM
TGI (IGROV1 ovarian): > 100 µM
TGI (ACHN renal): > 100 µM
TGI (UACC-257 melanoma): > 100 µM
TGI (SNB-78 CNS): > 100 µM
TGI (KM20L2 colon): > 100 µM
TGI (SF-539 CNS): > 100 µM
TGI (SR leukemia): > 100 µM
TGI (HT29 colon): > 100 µM
TGI (RXF 393 renal): > 100 µM
TGI (HL-60(TB) leukemia): 48.5 µM
TGI (SW-620 colon): 37.2 µM
TGI (A549 NSCLC): > 100 µM
TGI (RPMI-8226 leukemia): 80.4 µM
TGI (LXFL 529 NSCLC): 91.8 µM
TGI (DLD-1 colon): 53.9 µM
TGI (UO-31 renal): > 100 µM
TGI (786-0 renal): > 100 µM
TGI (CAKI-1 renal): 76.6 µM
TGI (DMS 114 small cell lung): 32.5 µM
TGI (CCRF-CEM leukemia): 92 µM
TGI (M14 melanoma): 53.9 µM
TGI (SNB-75 CNS): > 100 µM
TGI (HOP-92 NSCLC): 95.2 µM
TGI (NCI-H460 lung): 85 µM
TGI (A498 renal): > 100 µM
TGI (HOP-62 NSCLC): > 100 µM
TGI (LOX IMVI melanoma): 31.4 µM
TGI (NCI-H522 lung): 24.3 µM
TGI (TK-10 renal): > 100 µM
TGI (SN12C renal): > 100 µM
TGI (SK-OV-3 ovarian): > 100 µM
TGI (OVCAR-8 ovarian): 55.6 µM
TGI (HOP-18 NSCLC): > 100 µM
TGI (M19-MEL melanoma): > 100 µM
TGI (SK-MEL-5 melanoma): 32.5 µM
TGI (UACC-62 melanoma): 32 µM

CC(c1ccccc1)N1CC(C)(c2ccccc2)N(O)C(c2ccccc2)C1C (stereo not drawn)
TGI (K-562 leukemia): > 100 µM
TGI (OVCAR-5 ovarian): > 100 µM
TGI (NCI-H23 lung): 56.8 µM
TGI (KM12 colon): > 100 µM
TGI (DMS 273 small cell lung): > 100 µM
TGI (RXF-631 renal): 82 µM
TGI (SF-295 CNS): 37.5 µM
TGI (SNB-19 CNS): > 100 µM
TGI (EKVX NSCLC): 62.1 µM
TGI (COLO 205 colon): 23.7 µM
TGI (OVCAR-3 ovarian): 40.8 µM
TGI (MALME-3M melanoma): 66.2 µM
TGI (SK-MEL-28 melanoma): 21.9 µM
TGI (U251 CNS): 32.7 µM
TGI (SK-MEL-2 melanoma): 28 µM
TGI (MOLT-4 leukemia): 29.8 µM
TGI (HCC-2998 colon): 36.9 µM
TGI (SF-268 CNS): 31.3 µM
TGI (IGROV1 ovarian): > 100 µM
TGI (ACHN renal): 45.4 µM
TGI (UACC-257 melanoma): 45.1 µM
TGI (SNB-78 CNS): 89.9 µM
TGI (KM20L2 colon): 44.7 µM
TGI (SF-539 CNS): 26.5 µM
TGI (HT29 colon): > 100 µM
TGI (RXF 393 renal): 36.8 µM
TGI (HCT-116 colon): 11.6 µM
TGI (HL-60(TB) leukemia): 13.5 µM
TGI (SW-620 colon): 68.1 µM
TGI (A549 NSCLC): 37.8 µM
TGI (RPMI-8226 leukemia): 62.8 µM
TGI (LXFL 529 NSCLC): 37.3 µM
TGI (DLD-1 colon): > 100 µM
TGI (UO-31 renal): 10.2 µM
TGI (786-0 renal): 30.2 µM
TGI (DMS 114 small cell lung): 45.1 µM
TGI (CCRF-CEM leukemia): 31 µM
TGI (SNB-75 CNS): 55.2 µM
TGI (HOP-92 NSCLC): 8.36 µM
TGI (NCI-H460 lung): 27 µM
TGI (A498 renal): 85.3 µM
TGI (HOP-62 NSCLC): 38.9 µM
TGI (LOX IMVI melanoma): 30.1 µM
TGI (NCI-H522 lung): 32.3 µM
TGI (TK-10 renal): > 100 µM
TGI (SK-OV-3 ovarian): 87.8 µM
TGI (OVCAR-8 ovarian): > 100 µM
TGI (HOP-18 NSCLC): 51.2 µM
